“Also recorded” adds a separate entry of the source.
Legend:
Type in all cases: cell-based
β3 homomeric receptors = biological target: T1, β3 homomeric receptors (Homo sapiens, UniProt P28472); test: Two-electrode voltage clamp of β3 homomeric receptors expressed in Xenopus oocytes; details: β3 homomeric receptors; 0.1–300 μM etomidate
T1 construct: expressed in transfected cells; host or cells: Xenopus laevis oocytes injected with β3 mRNA (5 ng/oocyte)
T1 sequence (P28472 26-473): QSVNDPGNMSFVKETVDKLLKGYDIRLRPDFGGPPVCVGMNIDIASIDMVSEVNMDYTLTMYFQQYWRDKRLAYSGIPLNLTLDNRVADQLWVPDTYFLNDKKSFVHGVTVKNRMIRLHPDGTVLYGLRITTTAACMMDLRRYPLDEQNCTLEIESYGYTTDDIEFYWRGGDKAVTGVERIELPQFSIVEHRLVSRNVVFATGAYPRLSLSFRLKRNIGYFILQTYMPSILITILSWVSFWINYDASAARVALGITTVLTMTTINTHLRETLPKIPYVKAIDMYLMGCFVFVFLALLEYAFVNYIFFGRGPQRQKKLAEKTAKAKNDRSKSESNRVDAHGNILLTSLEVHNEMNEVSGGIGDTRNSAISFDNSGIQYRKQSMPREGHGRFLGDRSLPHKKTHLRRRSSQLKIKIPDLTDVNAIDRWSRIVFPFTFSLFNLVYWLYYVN
From the text: (§1) Human complementary DNA (cDNA) of GABAAR α2 subunit (vector: pCMV6-XL5) was purchased from OriGene Technologies (Rockville, MD, USA), and the human β3 (vector: pGEMHE) and γ2L (vector: pCDM8) subunits were generous gifts from Dr. Bjarke Ebert (H. Lundbeck A/S, Valby, Denmark) and Dr. Paul Whiting (Merck, Sharp and Dohme Research Laboratories, Harlow, Essex, UK) respectively. […] Plasmid vectors with the cDNA incorporated were linearised using appropriate restriction endonucleases (α2: SmaI; β3: NheI; γ2L: NotI). Capped RNA transcripts were synthesised from linearised plasmids using the mMessage mMachine T7 transcript kit from Ambion (Austin, TX, USA). Purified messenger RNA (mRNA) was dissolved in nuclease-free water (Ambion, Austin, TX, USA), and its quality was assessed using 1% agarose gel electrophoresis. The concentration of each subunit mRNA was measured using Nanodrop ND-100 UV-Vis spectrophotometer (Thermo Fisher Scientific, North Ryde, NSW, Australia).
(§2) Various combinations of α2, β3 and γ2L subunit mRNAs were mixed to different ratios as stated in the text, and diluted accordingly to a concentration of 5 ng/μL (unless otherwise stated). […] Injected oocytes were stored in ND96 storage solution supplemented with 50 μg/mL gentamycin and tetracycline at 18°C. Two-electrode voltage clamp recordings were performed on oocytes 2–4 days post-injection at room temperature (20–25°C) using a GeneClamp 500B amplifier (ADInstruments, Sydney, NSW, Australia) or a Warner OC-725C Oocyte Clamp (Warner Instrument Corp, Hamden, CT, USA). All experiments were conducted at a holding potential of –60 mV, and data were acquired with a PowerLab 2/25, and LabChart (version 5.0.2) software (ADInstruments, Sydney, NSW, Australia). The recording microelectrodes (0.2–1.1 MΩ) were generated from capillary glass (Harvard Apparatus, Holliston, MA, USA) using a single-stage glass microelectrode puller (Narishige, Tokyo, Japan), and were filled with 3 M KCl solution. The perfusion system was built using a series of polycarbonate, high-density polyethylene two-way stopcocks (Qosina, Edgewood, NY, USA), connected through tubing to the recording chamber (100 μL), where the oocyte was continuously perfused with ND96 recording solution (96 mM NaCl, 2 mM KCl, 1 mM MgCl2, 1.8 mM CaCl2, 5 mM HEPES hemisodium; pH 7.4) at an approximate rate of 5 mL/min.
(§3) Perfusates containing these chemicals were made up fresh before each application. The concentration-response curves of agonists were obtained by exposing oocytes to increasing concentrations of agonists until the currents peaked. […] All experiments were performed using at least two different batches of oocytes.
Prism (version 5.04; GraphPad Software, La Jolla, CA, USA) was used for data analysis. […]

γ2L homomeric receptors = biological target: T2, γ2L homomeric receptors (Homo sapiens, UniProt P18507); test: Two-electrode voltage clamp of γ2L homomeric receptors expressed in Xenopus oocytes; details: 100 μM
T2 construct: expressed in transfected cells; host or cells: Xenopus laevis oocytes injected with γ2L mRNA alone (high amounts)
T2 sequence (P18507 40-475): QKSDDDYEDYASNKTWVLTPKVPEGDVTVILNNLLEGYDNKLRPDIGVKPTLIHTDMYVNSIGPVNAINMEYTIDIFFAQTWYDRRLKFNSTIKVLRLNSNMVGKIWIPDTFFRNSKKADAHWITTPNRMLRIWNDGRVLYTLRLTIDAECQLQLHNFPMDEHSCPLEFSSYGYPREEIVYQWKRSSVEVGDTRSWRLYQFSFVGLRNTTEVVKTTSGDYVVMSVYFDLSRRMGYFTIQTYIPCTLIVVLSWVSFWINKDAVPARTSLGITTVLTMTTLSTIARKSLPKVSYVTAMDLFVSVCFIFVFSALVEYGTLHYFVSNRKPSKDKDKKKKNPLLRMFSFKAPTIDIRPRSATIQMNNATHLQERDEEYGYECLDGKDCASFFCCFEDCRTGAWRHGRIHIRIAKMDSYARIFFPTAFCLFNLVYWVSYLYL
From the text: as §1, §2, §3

α2γ2L receptors = biological target: T3, α2γ2L receptors (Homo sapiens, UniProt P18507+P47869); test: Two-electrode voltage clamp of binary α2γ2L receptors expressed in Xenopus oocytes
T3 construct: expressed in transfected cells; host or cells: Xenopus laevis oocytes injected with α2 and γ2L mRNAs
T3 sequence (P18507 40-475, one chain of several): as the sequence (P18507 40-475) above
From the text: as §1, §2, §3

β3γ2L GABAARs = biological target: T4, β3γ2L GABAARs (Homo sapiens, UniProt P18507+P28472); test: Two-electrode voltage clamp of β3γ2L GABAARs expressed at various β3:γ2L mRNA ratios in Xenopus oocytes; details: for Effect of Zn2+ alone on baseline current: 100 μM; for EC50: EC50 (95% CI) of direct activation
T4 construct: expressed in transfected cells; host or cells: Xenopus laevis oocytes injected with β3 and γ2L mRNAs at 1:1 to 1:100
T4 sequence (P18507 40-475, one chain of several): as the sequence (P18507 40-475) above
From the text: as §1
as §2, with “All experiments were conducted at a holding potential of –60 mV, and data were acquired with a PowerLab 2/25, and LabChart (version 5.0.2) software (ADInstruments, Sydney, NSW, Australia).” left out
as §3
(§4) Prism (version 5.04; GraphPad Software, La Jolla, CA, USA) was used for data analysis.
(§5) In all cases, we constrained the bottom to 0, and when fitting data to the biphasic model, the Hill slopes were constrained to 1. Statistical comparisons of results for different injection ratios of β3γ2L receptors were performed using ANOVA with Tukey’s post-hoc test. When comparing results from different injection ratios of β3γ2L receptors with α2β3γ2L receptors, the ANOVA Dunnett’s test was used. Pairwise comparisons were performed using Student’s t test. Statistical significance was attained at p < 0.05.

α2β3 GABAARs = biological target: T5, α2β3 GABAARs (Homo sapiens, UniProt P28472+P47869); test: Two-electrode voltage clamp of binary α2β3 GABAARs expressed in Xenopus oocytes; details: α2β3 20:1; 100 μM
T5 construct: expressed in transfected cells; host or cells: Xenopus laevis oocytes injected with capped mRNA, α2:β3 20:1
T5 sequence (P47869 29-451): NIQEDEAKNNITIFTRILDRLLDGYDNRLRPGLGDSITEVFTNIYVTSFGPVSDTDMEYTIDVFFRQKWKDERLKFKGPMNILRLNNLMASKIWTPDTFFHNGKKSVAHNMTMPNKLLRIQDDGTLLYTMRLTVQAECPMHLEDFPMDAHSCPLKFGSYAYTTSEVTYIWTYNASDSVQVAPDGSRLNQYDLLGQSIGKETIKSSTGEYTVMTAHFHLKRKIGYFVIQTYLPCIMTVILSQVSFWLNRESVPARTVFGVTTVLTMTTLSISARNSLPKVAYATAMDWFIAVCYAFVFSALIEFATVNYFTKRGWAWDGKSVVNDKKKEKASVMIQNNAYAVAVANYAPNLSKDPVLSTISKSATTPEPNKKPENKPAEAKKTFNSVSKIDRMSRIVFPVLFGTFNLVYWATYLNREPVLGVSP
T5 sequence (P28472 26-473): T1 sequence (P28472 26-473)
From the text: as §1, §2, §3, §4, §5

CCOC(=O)c1cncn1[C@H](C)c1ccccc1 [Etomidate]
E max, normalised against 60 mM GABA (β3 homomeric receptors): 15 ± 0.79
Direct activation by etomidate (γ2L homomeric receptors; γ2L alone): not sensitive; also recorded: did not activate
Direct activation by etomidate (α2γ2L receptors; α2γ2L, data not shown): did not activate
E max ± SEM (300 μM etomidate-elicited current normalised against 3 mM GABA response) (β3γ2L GABAARs; β3γ2L 1:15, -30 mV): 9.9 ± 0.84
n H ± SEM (Hill slope) of direct activation (β3γ2L GABAARs; β3γ2L 1:15, -30 mV): 1.3 ± 0.33
E max ± SEM (30 μM etomidate-elicited current normalised against 3 mM GABA response) (β3γ2L GABAARs; β3γ2L 1:15, -60 mV): 20 ± 1.8
n H ± SEM (Hill slope) of direct activation (β3γ2L GABAARs; β3γ2L 1:15, -60 mV): 2.0 ± 0.32
E max ± SEM (300 μM etomidate-elicited current normalised against 3 mM GABA response) (β3γ2L GABAARs; β3γ2L 1:50, -60 mV): 5.5 ± 0.80
n H ± SEM (Hill slope) of direct activation (β3γ2L GABAARs; β3γ2L 1:50, -60 mV): 1.3 ± 0.37
E max ± SEM (300 μM etomidate-elicited current normalised against 3 mM GABA response) (β3γ2L GABAARs; β3γ2L 1:100, -30 mV): 2.8 ± 0.50
n H ± SEM (Hill slope) of direct activation (β3γ2L GABAARs; β3γ2L 1:100, -30 mV): 1.2 ± 0.50
E max ± SEM (300 μM etomidate-elicited current normalised against 3 mM GABA response) (β3γ2L GABAARs; β3γ2L 1:100, -60 mV): 3.2 ± 0.40
n H ± SEM (Hill slope) of direct activation (β3γ2L GABAARs; β3γ2L 1:100, -60 mV): 1.5 ± 0.46

[Cl-].[Cl-].[Zn+2] [Zn^2+, zinc chloride]
Effect of Zn2+ alone on baseline current (α2β3 GABAARs): lack of activity
Effect of Zn2+ alone on constitutive activity (γ2L homomeric receptors; 28–35 ng/oocyte): inhibited
Effect of Zn2+ alone (α2γ2L receptors; α2γ2L 1:1, 100 μM): no function
Effect of Zn2+ alone on baseline current (β3γ2L GABAARs; β3γ2L 1:15): reduction in inward current; also recorded: sensitive to the inhibition
Effect of Zn2+ alone on baseline current (β3γ2L GABAARs; β3γ2L 1:50): did not have any effects
Effect of Zn2+ alone on baseline current (β3γ2L GABAARs; β3γ2L 1:100): did not have any effects

CC(C)c1cccc(C(C)C)c1O [Propofol]
EC50 (β3γ2L GABAARs; β3γ2L 1:15, -60 mV): 85 µM
EC50 (β3γ2L GABAARs; β3γ2L 1:100, -60 mV): 74 µM
E max ± SEM (300 μM propofol-elicited current normalised against 3 mM GABA response) (β3γ2L GABAARs; β3γ2L 1:15, -60 mV): 5.7 ± 0.55
n H ± SEM (Hill slope) of direct activation (β3γ2L GABAARs; β3γ2L 1:15, -60 mV): 1.4 ± 0.50
E max ± SEM (300 μM propofol-elicited current normalised against 3 mM GABA response) (β3γ2L GABAARs; β3γ2L 1:15, -60 mV, listed as propofol): approximately 6
E max ± SEM (300 μM propofol-elicited current normalised against 3 mM GABA response) (β3γ2L GABAARs; β3γ2L 1:100, -60 mV): 0.64 ± 0.23
n H ± SEM (Hill slope) of direct activation (β3γ2L GABAARs; β3γ2L 1:100, -60 mV): 2.0 ± 1.2

From publication PMC4619705 (PLoS ONE, 2015)
